In brackets after ≈: the same amount, converted by molar mass. Activity calls are given as the source filed them. No cut-off for these calls is given here.
What was measured:
[1] = tested on: Mycobacterium tuberculosis; assay: Antitubercular activity against Mycobacterium tuberculosis H37Rv by Agar dilution method; type: functional
[2] = tested on: Mycobacterium tuberculosis; assay: Antitubercular activity against Mycobacterium tuberculosis H37Rv by MABA assay; type: functional
Vero = assay: Cytotoxicity against Vero cells after 3 days; type: cell-based; conditions: chlorocebus sabaeus, 72 h
[3] = tested on: Mycobacterium tuberculosis; assay: Antitubercular activity against Mycobacterium tuberculosis H37Rv at 12.5 ug/mL by MABA assay; type: functional, organism-based

## Fc1ccc(C(c2ccccc2)c2ccc(OCCN3CCCCC3)c3ccccc23)cc1 (stereo unspecified)
[1]
  MIC: 12.5 µg/mL (≈ 28.4 µM)
[2]
  MIC: 12.5 µg/mL (≈ 28.4 µM)

## c1ccc(C(c2ccccc2)c2c(OCCN3CCCCCC3)ccc3ccccc23)cc1
[1]
  MIC: 3.12 µg/mL (≈ 7.16 µM)
Vero
  Activity: Toxic
[2]
  MIC: 6.25 µg/mL (≈ 14.3 µM)

## Clc1ccc(C(c2ccccc2)c2c(OCCN3CCCCC3)ccc3ccccc23)cc1 (stereo unspecified)
[1]
  MIC: 6.25 µg/mL (≈ 13.7 µM)
[2]
  MIC: 3.12 µg/mL (≈ 6.84 µM)

## CN(C)CCOc1ccc2ccccc2c1C(c1ccccc1)c1ccc(Cl)cc1 (stereo unspecified)
[1]
  MIC: 6.25 µg/mL (≈ 15 µM)
[2]
  MIC: 3.12 µg/mL (≈ 7.5 µM)

## Fc1ccc(C(c2ccccc2)c2ccc(OCCN3CCCC3)c3ccccc23)cc1 (stereo unspecified)
[1]
  MIC: 12.5 µg/mL (≈ 29.4 µM)
[2]
  MIC: 6.25 µg/mL (≈ 14.7 µM)

## c1ccc(C(c2ccccc2)c2ccc(OCCN3CCCCC3)c3ccccc23)cc1
[1]
  MIC: > 12.5 µg/mL
[2]
  MIC: 12.5 µg/mL (≈ 29.7 µM)

## Clc1ccc(C(c2ccccc2)c2c(OCCN3CCCCCC3)ccc3ccccc23)cc1 (stereo unspecified)
[1]
  MIC: 6.25 µg/mL (≈ 13.3 µM)
[2]
  MIC: 3.12 µg/mL (≈ 6.64 µM)

## Fc1ccc(C(c2ccccc2)c2ccc(OCCN3CCCCCC3)c3ccccc23)cc1 (stereo unspecified)
[1]
  MIC: > 12.5 µg/mL
[2]
  MIC: 12.5 µg/mL (≈ 27.6 µM)

## Fc1ccc(C(c2ccccc2)c2c(OCCN3CCCCCC3)ccc3ccccc23)cc1 (stereo unspecified)
[1]
  MIC: 12.5 µg/mL (≈ 27.6 µM)
[2]
  MIC: 6.25 µg/mL (≈ 13.8 µM)

## c1ccc(C(c2ccccc2)c2c(OCCN3CCCC3)ccc3ccccc23)cc1
[1]
  MIC: 3.12 µg/mL (≈ 7.66 µM)
Vero
  Activity: Toxic
[2]
  MIC: 6.25 µg/mL (≈ 15.3 µM)

## CN(C)CCOc1ccc(C(c2ccccc2)c2ccc(F)cc2)c2ccccc12 (stereo unspecified)
[1]
  MIC: > 12.5 µg/mL
[3]
  Activity: inactive

## CN(C)CCOc1ccc(C(c2ccccc2)c2ccccc2)c2ccccc12
[1]
  MIC: 6.25 µg/mL (≈ 16.4 µM)
[2]
  MIC: 12.5 µg/mL (≈ 32.8 µM)

## CN(C)CCOc1ccc2ccccc2c1C(c1ccccc1)c1ccccc1
[1]
  MIC: 3.12 µg/mL (≈ 8.18 µM)
Vero
  Activity: Toxic
[2]
  MIC: 6.25 µg/mL (≈ 16.4 µM)

## CCN(CC)CCOc1ccc2ccccc2c1C(c1ccccc1)c1ccc(F)cc1 (stereo unspecified)
[1]
  MIC: 3.12 µg/mL (≈ 7.3 µM)
Vero
  Activity: Toxic
[2]
  MIC: 6.25 µg/mL (≈ 14.6 µM)

## Clc1ccc(C(c2ccccc2)c2c(OCCN3CCCC3)ccc3ccccc23)cc1 (stereo unspecified)
[1]
  MIC: 6.25 µg/mL (≈ 14.1 µM)
[2]
  MIC: 3.12 µg/mL (≈ 7.06 µM)

## CCN(CC)CCOc1ccc2ccccc2c1C(c1ccccc1)c1ccc(Cl)cc1 (stereo unspecified)
[1]
  MIC: 6.25 µg/mL (≈ 14.1 µM)
[2]
  MIC: 3.12 µg/mL (≈ 7.03 µM)

## CN(C)CCOc1ccc(C(c2ccccc2)c2ccc(Cl)cc2)c2ccccc12 (stereo unspecified)
[1]
  MIC: > 12.5 µg/mL
[3]
  Activity: inactive

## CCN(CC)CCOc1ccc2ccccc2c1C(c1ccccc1)c1ccccc1
[1]
  MIC: 3.12 µg/mL (≈ 7.62 µM)
Vero
  Activity: Toxic
[2]
  MIC: 6.25 µg/mL (≈ 15.3 µM)

## CCN(CC)CCOc1ccc(C(c2ccccc2)c2ccc(F)cc2)c2ccccc12 (stereo unspecified)
[1]
  MIC: > 12.5 µg/mL
[3]
  Activity: inactive

## Clc1ccc(C(c2ccccc2)c2ccc(OCCN3CCCCC3)c3ccccc23)cc1 (stereo unspecified)
[1]
  MIC: 12.5 µg/mL (≈ 27.4 µM)
[3]
  Activity: inactive

## CN(C)CCOc1ccc2ccccc2c1C(c1ccccc1)c1ccc(F)cc1 (stereo unspecified)
[1]
  MIC: 6.25 µg/mL (≈ 15.6 µM)
[2]
  MIC: 3.12 µg/mL (≈ 7.81 µM)

## Clc1ccc(C(c2ccccc2)c2ccc(OCCN3CCCCCC3)c3ccccc23)cc1 (stereo unspecified)
[1]
  MIC: > 12.5 µg/mL
[3]
  Activity: inactive

## c1ccc(C(c2ccccc2)c2c(OCCN3CCCCC3)ccc3ccccc23)cc1
[1]
  MIC: 3.12 µg/mL (≈ 7.4 µM)
Vero
  Activity: Toxic
[2]
  MIC: 6.25 µg/mL (≈ 14.8 µM)

## CO[C@H]1/C=C/O[C@@]2(C)Oc3c(C)c(O)c4c(O)c(c(/C=N/N5CCN(C)CC5)c(O)c4c3C2=O)NC(=O)/C(C)=C\C=C\[C@H](C)[C@H](O)[C@@H](C)[C@@H](O)[C@@H](C)[C@H](OC(C)=O)[C@@H]1C [RIFAMPIN]
[1]
  MIC: 0.2 µg/mL (≈ 0.243 µM)
[2]
  MIC: 0.2 µg/mL (≈ 0.243 µM)

## Fc1ccc(C(c2ccccc2)c2c(OCCN3CCCCC3)ccc3ccccc23)cc1 (stereo unspecified)
[1]
  MIC: 3.12 µg/mL (≈ 7.1 µM)
Vero
  Activity: Toxic
[2]
  MIC: 6.25 µg/mL (≈ 14.2 µM)

## c1ccc(C(c2ccccc2)c2ccc(OCCN3CCCCCC3)c3ccccc23)cc1
[1]
  MIC: 12.5 µg/mL (≈ 28.7 µM)
[2]
  MIC: 12.5 µg/mL (≈ 28.7 µM)

## CCN(CC)CCOc1ccc(C(c2ccccc2)c2ccccc2)c2ccccc12
[1]
  MIC: 12.5 µg/mL (≈ 30.5 µM)
[2]
  MIC: 6.25 µg/mL (≈ 15.3 µM)

## c1ccc(C(c2ccccc2)c2ccc(OCCN3CCCC3)c3ccccc23)cc1
[1]
  MIC: 12.5 µg/mL (≈ 30.7 µM)
[2]
  MIC: 6.25 µg/mL (≈ 15.3 µM)

## Clc1ccc(C(c2ccccc2)c2ccc(OCCN3CCCC3)c3ccccc23)cc1 (stereo unspecified)
[1]
  MIC: 12.5 µg/mL (≈ 28.3 µM)
[3]
  Activity: inactive

## Fc1ccc(C(c2ccccc2)c2c(OCCN3CCCC3)ccc3ccccc23)cc1 (stereo unspecified)
[1]
  MIC: 6.25 µg/mL (≈ 14.7 µM)
[2]
  MIC: 3.12 µg/mL (≈ 7.33 µM)

## CCN(CC)CCOc1ccc(C(c2ccccc2)c2ccc(Cl)cc2)c2ccccc12 (stereo unspecified)
[1]
  MIC: 12.5 µg/mL (≈ 28.2 µM)
[2]
  MIC: 12.5 µg/mL (≈ 28.2 µM)

## NNC(=O)c1ccncc1 [ISONIAZID]
[1]
  MIC: 0.025 µg/mL (≈ 0.182 µM)
[2]
  MIC: 0.025 µg/mL (≈ 0.182 µM)

— ChEMBL document CHEMBL1139800, “Design, synthesis and antitubercular activity of diarylmethylnaphthol derivatives” (Bioorg Med Chem Lett, 2007)
